We go through 29 compounds from patent US8524738B2, “Quinolinones and quinoxalinones as antibacterial composition” (Toyama Chemical Co., Ltd., priority 2005, dated 2013).

A word on the MIC: it is the least concentration at which growth counts as inhibited.

SMILES strings stand for the structures. Values after ≈ are worked out from the molar mass of the structure shown. Where a name gives a salt, the structure may show the parent alone. Read-outs that look alike come from different tables or passages of the source.

The test system of this experiment is Staphylococcus aureus (S. aureus FDA209P). In words: Sensitivity Test 1: antibacterial activity (MIC) by micro-dilution method. In kind it is cell-based. The procedure: Test compounds were initially dissolved in dimethylsulfoxide. Antibacterial activities (MICs) of the same compounds were determined by the micro-dilution method as recommended by the Japanese Society of Chemotherapy.
Staphylococcus aureus (S. aureus FDA209P) was used as the test organism. The bacterial cells were grown overnight at 35° C. on Mueller-Hinton agar (MHA) plates. The bacterial cells were then suspended in sterile saline and adjusted to the turbidity of a 0.5 McFarland standard. The inoculum was prepared by 10-fold dilution of this suspension. Approximately 0.005 mL aliquots of the inoculum prepared above were subsequently inoculated into Cation-adjusted Mueller-Hinton broth (CAMHB, 100 μL/well) including the test compounds for overnight incubation at 35° C.
In general terms: Dilution methods test growth across graded concentrations, often in twofold steps.

Where [1] appears, read: S. aureus FDA209P, CAMHB, overnight incubation at 35° C., lowest concentration with virtually no growth, read-out: MIC.

With `CCc1ccc(CNC2CCN(CCn3c(=O)cnc4ccc(F)cc43)CC2)cc1` [Example 347, 1-(2-(4-(4-ethylbenzylamino)piperidin-1-yl)ethyl)-7-fluoroquinoxalin-2(1H)-one hydrochloride], where the note is “FDA209P”, the MIC is 0.0156 µg/mL. `Nc1cc(=O)n(CCN2CCC(NCc3ccc4c(c3)OCCO4)CC2)c2ccccc12` [Example 97, 4-amino-1-(2-(4-((2,3-dihydro-1,4-benzodioxin-6-ylmethyl)amino)piperidin-1-yl)ethyl)-quinolin-2(1H)-one hydrochloride] showed an MIC (FDA209P) of 0.125 µg/mL. On to `COc1ccc2c(C(=O)Nc3ccccc3)cc(=O)n(CCN3CCC(NCc4ccc5c(c4)OCCO5)CC3)c2c1` [Example 83, 1-(2-(4-((2,3-dihydro-1,4-benzodioxin-6-ylmethyl)amino)piperidin-1-yl)ethyl)-7-methoxy-2-oxo-N-phenyl-1,2-dihydroquinoline-4-carboxamide], for which the MIC under setting [1] is 0.0625 µg/mL (≈ 0.11 µM). Regarding `Cc1cc(=O)n(CCN2CCC(NCc3ccc4c(c3)OCCO4)CC2)c2cc(OC3CC3)ccc12` [Example 129, 7-cyclopropoxy-1-(2-(4-((2,3-dihydro-1,4-benzodioxin-6-ylmethyl)amino)piperidin-1-yl)ethyl)-4-methylquinolin-2(1H)-one hydrochloride], the lowest concentration to inhibit growth (FDA209P) (MIC) was 0.0625 µg/mL. For the compound `O=c1cnc2ccc(F)cc2n1CCN1CCC(NCc2ccc3c(c2)OCCO3)CC1` [Example 346, (1-(2-(4-((2,3-dihydro-1,4-benzodioxin-6-ylmethyl)amino)piperidin-1-yl)ethyl)-7-fluoroquinoxalin-2(1H)-one hydrochloride], under setting [1], the MIC turned out to be 0.0156 µg/mL. For `COc1ccc2c(C(N)=O)cc(=O)n(CCN3CCC(NCc4ccc5c(c4)OCCO5)CC3)c2c1` [Example 70, 1-(2-(4-((2,3-dihydro-1,4-benzodioxin-6-ylmethyl)amino)piperidin-1-yl)ethyl)-7-methoxy-2-oxo-1,2-dihydroquinoline-4-carboxamide], the MIC under setting [1] was 0.25 µg/mL (≈ 0.508 µM). As to `COc1ccc2c(C(=O)NC3CC3)cc(=O)n(CCN3CCC(NCc4ccc5c(c4)OCCO5)CC3)c2c1` [Example 79, N-cyclopropyl-1-(2-(4-((2,3-dihydro-1,4-benzodioxin-6-ylmethyl)amino)piperidin-1-yl)ethyl)-7-methoxy-2-oxo-1,2-dihydroquinoline-4-carboxamide], under setting [1], the minimal inhibitory concentration (MIC) was found to be 0.0625 µg/mL (≈ 0.117 µM). Take `CNC(=O)c1cc(OC)cc2c1ccc(=O)n2CCN1CCC(NCc2ccc3c(c2)OCCO3)CC1` [Example 186, 1-(2-(4-((2,3-dihydro-1,4-benzodioxin-6-ylmethyl)amino)piperidin-1-yl)ethyl)-7-methoxy-N-methyl-2-oxo-1,2-dihydroquinoline-5-carboxamide hydrochloride]: inhibition of growth (FDA209P) (MIC) required 0.25 µg/mL. The same measure, in the same setting: as for `COc1cccc2ccc(=O)n(CCN3CCC(NCc4ccc5c(c4)OCCO5)CC3)c12` [Example 244, 1-(2-(4-((2,3-dihydro-1,4-benzodioxin-6-ylmethyl)amino)piperidin-1-yl)ethyl)-8-methoxyquinolin-2(1H)-one hydrochloride], the figure is 0.0625 µg/mL; as for `O=C1CSc2cc(Cl)c(CNC3CCN(CCn4c(=O)cnc5ccc(F)cc54)CC3)nc2N1` [Example 368, 1-(2-(4-((7-chloro-3-oxo-3,4-dihydro-2H-pyrido[3,2-b][1,4]thiazin-6-yl)methylamino)piperidin-1-yl)ethyl)-7-fluoroquinoxalin-2(1H)-one hydrochloride], 0.0156 µg/mL; as for `O=c1cnc2ccccc2n1CCN1CCC(NCc2ccc3c(c2)OCCO3)CC1` [Example 28, 1-(2-(4-((2,3-dihydro-1,4-benzodioxin-6-ylmethyl)amino)piperidin-1-yl)ethyl)quinoxalin-2(1H)-one hydrochloride], 0.0625 µg/mL. Where the note is “FDA209P”, `CNC(=O)c1cc(=O)n(CCN2CCC(NCc3cc4ccccc4s3)CC2)c2cc(OC)ccc12` [Example 343, 1-(2-(4-((benzo[b]thiophen-2-yl)methylamino)piperidin-1-yl)ethyl)-7-methoxy-N-methyl-2-oxo-1,2-dihydroquinoline-4-carboxamide hydrochloride] gave an MIC of 0.125 µg/mL. Take `CNC(=O)c1cc(=O)n(CCN2CCC(NCc3ccc(C(F)(F)F)c(F)c3)CC2)c2cc(OC)ccc12` [Example 182, 1-(2-(4-((3-fluoro-4-(trifluoromethyl)benzyl)amino)piperidin-1-yl)ethyl)-7-methoxy-N-methyl-2-oxo-1,2-dihydroquinoline-4-carboxamide]: the MIC under setting [1] came to 0.0625 µg/mL (≈ 0.117 µM).

Regarding `COc1ccc2ccc(=O)n(CCCC3(C(=O)O)CCN(CCSc4cccc(F)c4)CC3)c2c1` [Example 51, 1-(2-((3-fluorophenyl)thio)ethyl)-4-(3-(7-methoxy-2-oxoquinolin-1(2H)-yl)propyl)piperidine-4-carboxylic acid], the MIC under setting [1] is 0.125 µg/mL (≈ 0.251 µM).

In the case of `CCc1ccc(CNC2CCN(CCn3c(=O)cc(C(=O)NC)c4ccc(OC)cc43)CC2)cc1` [Example 339, 1-(2-(4-(4-ethylbenzylamino)piperidin-1-yl)ethyl)-7-methoxy-N-methyl-2-oxo-1,2-dihydroquinoline-4-carboxamide hydrochloride], the MIC (FDA209P) came out at 0.0625 µg/mL.

With `COc1ccc2c(C)cc(=O)n(CCN3CCC(NCCCc4ccccc4)CC3)c2c1` [Example 39, 7-methoxy-4-methyl-1-(2-(4-((3-phenylpropyl)amino)piperidin-1-yl)ethyl)quinolin-2(1H)-one], the MIC under setting [1] was found to be 0.0625 µg/mL (≈ 0.144 µM). Take `CNC(=O)c1cc(=O)n(CCN2CCC(NCC#Cc3ccccc3)CC2)c2cc(OC)ccc12` [Example 344, 7-methoxy-N-methyl-2-oxo-1-(2-(4-(3-phenyl-2-propyn-1-ylamino)piperidin-1-yl)ethyl)-1,2-dihydroquinoline-4-carboxamide hydrochloride]: the MIC (FDA209P) is 0.125 µg/mL. Still for that read-out and setting: as for `Cc1cc(=O)n(CCN2CCC(NCc3ccc4c(c3)OCCO4)CC2)c2cc(-n3ccnc3)ccc12` [Example 125, 1-(2-(4-((2,3-dihydro-1,4-benzodioxin-6-ylmethyl)amino)piperidin-1-yl)ethyl)-7-(1H-imidazol-1-yl)-4-methylquinolin-2(1H)-one hydrochloride], the figure is 0.0313 µg/mL. Still for that read-out and setting: as for `COc1cc(CO)c2ccc(=O)n(CCN3CCC(NCc4ccc5c(c4)OCCO5)CC3)c2c1` [Example 189, 1-(2-(4-((2,3-dihydro-1,4-benzodioxin-6-ylmethyl)amino)piperidin-1-yl)ethyl)-5-hydroxymethyl-7-methoxyquinolin-2(1H)-one hydrochloride], the figure is 0.0625 µg/mL; as for `Cc1cc(=O)n(CCN2CCC(NCc3ccc4c(c3)OCCO4)CC2)c2cc(OC(F)F)ccc12` [Example 127, 7-(difluoromethoxy)-1-(2-(4-((2,3-dihydro-1,4-benzodioxin-6-ylmethyl)amino)piperidin-1-yl)ethyl)-4-methylquinolin-2(1H)-one hydrochloride], 0.0625 µg/mL.

Compound `COc1ccc2ncc(=O)n(CCN3CCC(NCc4cc5ccccc5s4)CC3)c2c1` [Example 357, 1-(2-(4-((benzo[b]thiophen-2-yl)methylamino)piperidin-1-yl)ethyl)-7-methoxyquinoxalin-2(1H)-one hydrochloride] returned an MIC (FDA209P) of 0.0156 µg/mL. For `O=c1cnc2ccc(Br)cc2n1CCN1CCC(NCc2ccc3c(c2)OCCO3)CC1` [Example 363, 1-(2-(4-((2,3-dihydro-1,4-benzodioxin-6-ylmethyl)amino)piperidin-1-yl)ethyl)-7-bromoquinoxalin-2(1H)-one hydrochloride], for the setting “FDA209P”, 0.0313 µg/mL was the least that counted as inhibitory (MIC). Still for that read-out and setting: as for `COc1ccc2ncc(=O)n(CCN3CCC(NCc4nc5c(cc4Cl)SCC(=O)N5)CC3)c2c1` [Example 355, 1-(2-(4-((7-chloro-3-oxo-3,4-dihydro-2H-pyrido[3,2-b][1,4]thiazin-6-yl)methylamino)piperidin-1-yl)ethyl)-7-methoxyquinoxalin-2(1H)-one hydrochloride], the figure is 0.0156 µg/mL; as for `CNC(=O)c1cc(=O)n(CCN2CCC(NCc3cc4sccc4s3)CC2)c2cc(OC)ccc12` [Example 342, 7-methoxy-N-methyl-2-oxo-1-(2-(4-((thieno[3,2-b]thiophen-2-yl)methylamino)piperidin-1-yl)ethyl)-1,2-dihydroquinoline-4-carboxamide hydrochloride], 0.0313 µg/mL. Turning to `COc1ccc2c(C)cc(=O)n(CCN3CCC(NCCSc4cccs4)CC3)c2c1` [Example 57, 7-methoxy-4-methyl-1-(2-(4-((2-(2-thienylthio)ethyl)amino)piperidin-1-yl)ethyl)quinolin-2(1H)one hydrochloride], inhibition of growth (FDA209P) (MIC) required 0.0625 µg/mL.

Take `COc1ccc2c(C)cc(=O)n(CCN3CCN(CCc4ccc5c(c4)OCCO5)C(C(=O)O)C3)c2c1` (centres unmarked) [Example 53, 1-(2-(2,3-dihydro-1,4-benzodioxin-6-yl)ethyl)-4-(2-(7-methoxy-4-methyl-2-oxoquinolin-1(2H)-yl)ethyl)piperazine-2-carboxylic acid]: under setting [1], the minimal inhibitory concentration (MIC) is 1 µg/mL (≈ 1.97 µM). As for `O=c1cnc2ccc(F)cc2n1CCN1CCC(NCc2cc(-c3cccs3)on2)CC1` [Example 351, 7-fluoro-1-(2-(4-((5-(thiophen-2-yl)isoxazol-3-yl)methylamino)piperidin-1-yl)ethyl)quinoxalin-2(1H)-one hydrochloride], the minimal inhibitory concentration (MIC) (FDA209P) stood at 0.0078 µg/mL. `COc1ccc2ncc(=O)n(CCN3CCC(NCc4cc5sccc5s4)CC3)c2c1` [Example 360, 1-(2-(4-(((thieno[3,2-b]thiophen-2-yl)methylamino)piperidin-1-yl)ethyl)-7-methoxyquinoxalin-2(1H)-one hydrochloride]: the minimum inhibitory concentration (MIC) under setting [1] came out at 0.0078 µg/mL. Still for that read-out and setting: as for `CCNC(=O)c1cc(=O)n(CCN2CCC(NCc3ccc4c(c3)OCCO4)CC2)c2cc(OC)ccc12` [Example 77, 1-(2-(4-((2,3-dihydro-1,4-benzodioxin-6-ylmethyl)amino)piperidin-1-yl)ethyl)N-ethyl-7-methoxy-2-oxo-1,2-dihydroquinoline-4-carboxamide], the figure is 0.125 µg/mL (≈ 0.24 µM).
